Measurements as given in patent publication USRE40086E1, “Method for treating bacterial infection with novel 7-substituted-9-substituted amino 6-demethyl-6-deoxytetracyclines” (Wyeth Holdings Corporation, priority 1991, dated 2008).
≈ marks a conversion by molar mass, not a printed value.

Assays:
Test in all cases: MIC, agar dilution
Type in all cases: cell-based
[1] = tested on: S. aureus UBMS 88-5 (tetM); conditions: S. aureus UBMS 88-5 (tetM)
[2] = tested on: S. aureus UBMS 88-4 (Sensitive); conditions: S. aureus UBMS 88-4 (Sensitive)
[3] = tested on: S. aureus UBMS 90-1 (tetM); conditions: S. aureus UBMS 90-1 (tetM)
[4] = tested on: S. aureus UBMS 90-2 (tetM); conditions: S. aureus UBMS 90-2 (tetM)
[5] = tested on: S. aureus UBMS 90-3 (Sensitive); conditions: S. aureus UBMS 90-3 (Sensitive)
[6] = tested on: S. aureus UBMS 88-7 (tetK); conditions: S. aureus UBMS 88-7 (tetK)
[7] = tested on: S. aureus IVES 2943 (meth. resistant); conditions: S. aureus IVES 2943 (meth. resistant)
[8] = tested on: S. aureus IVES 1983 (meth. resistant); conditions: S. aureus IVES 1983 (meth. resistant)
[9] = tested on: S. aureus ATCC 29213 (Sensitive); conditions: S. aureus ATCC 29213 (Sensitive)
[10] = tested on: S. aureus Smith (Sensitive); conditions: S. aureus Smith (Sensitive)
[11] = tested on: S. haemolyticus AVAH 88-3; conditions: S. haemolyticus AVAH 88-3
E. faecalis 12201 = conditions: E. faecalis 12201
E. faecalis ATCC 29212 = conditions: E. faecalis ATCC 29212
E. coli UBMS 88-1 (tetB) = conditions: E. coli UBMS 88-1 (tetB)
[12] = tested on: E. coli UBMS 88-2 (Sensitive); conditions: E. coli UBMS 88-2 (Sensitive)
E. coli UBMS 89-1 (tetM) = conditions: E. coli UBMS 89-1 (tetM)
[13] = tested on: E. coli UBMS 89-2 (Sensitive); conditions: E. coli UBMS 89-2 (Sensitive)
E. coli ATCC 25922 = conditions: E. coli ATCC 25922

Compound	MIC [1] [µg/mL]	MIC [2] [µg/mL]	MIC [3] [µg/mL]	MIC [4] [µg/mL]	MIC [5] [µg/mL]	MIC [6] [µg/mL]	MIC [7] [µg/mL]	MIC [8] [µg/mL]	MIC [9]	MIC [10]	MIC [11] [µg/mL]	MIC (E. faecalis 12201) [µg/mL]	MIC (E. faecalis ATCC 29212) [µg/mL]	MIC (E. coli UBMS 88-1 (tetB)) [µg/mL]	MIC [12] [µg/mL]	MIC (E. coli UBMS 89-1 (tetM)) [µg/mL]	MIC [13] [µg/mL]	MIC (E. coli ATCC 25922) [µg/mL]
CC(=O)OCC(=O)Nc1cc(N(C)C)c2c(c1O)C(=O)C1=C(O)[C@]3(O)C(=O)C(C(N)=O)=C(O)[C@@H](N(C)C)[C@@H]3C[C@@H]1C2 [K, 9-[[(Acetyloxy)acetyl]amino)-7-(dimethylamino)-6-demethyl-6-deoxytetracycline]	0.25 (≈ 0.437 µM)	0.12 (≈ 0.21 µM)	0.25 (≈ 0.437 µM)	0.06 (≈ 0.105 µM)	0.03 (≈ 0.0524 µM)	32 (≈ 55.9 µM)	32 (≈ 55.9 µM)	32 (≈ 55.9 µM)	≦0.015 μg/ml	≦0.015 μg/ml	0.5 (≈ 0.873 µM)	0.25 (≈ 0.437 µM)	0.06 (≈ 0.105 µM)	16 (≈ 27.9 µM)	4 (≈ 6.99 µM)	1 (≈ 1.75 µM)	8 (≈ 14 µM)	4 (≈ 6.99 µM)
CN(C)c1cc(NC(=O)c2ccc(N)cc2)c(O)c2c1CC1CC3C(N(C)C)C(O)=C(C(N)=O)C(=O)C3(O)C(O)=C1C2=O.O=S(=O)(O)O (stereo not drawn) [X, 9-[(4-Aminobenzoyl)amino)-7-(dimethylamino)-6-demethyl-6-deoxytetracycline sulfate]	8	1	16	8	1	8	>32	>32	0.5 µg/mL	1 µg/mL	8	32	8	>32	>32	>32	>32	>32
CN(C)c1cc(NC(=O)COCc2ccccc2)c(O)c2c1CC1CC3C(N(C)C)C(O)=C(C(N)=O)C(=O)C3(O)C(O)=C1C2=O (stereo not drawn) [J, 7-(Dimethylamino)-9-([(phenylmethoxy)acetyl)amino]-6-demethyl-6-deoxytetracycline]	4 (≈ 6.44 µM)	2 (≈ 3.22 µM)	4 (≈ 6.44 µM)	2 (≈ 3.22 µM)	0.5 (≈ 0.806 µM)	2 (≈ 3.22 µM)	4 (≈ 6.44 µM)	4 (≈ 6.44 µM)	0.06 µg/mL (≈ 0.0967 µM)	0.5 µg/mL (≈ 0.806 µM)	4 (≈ 6.44 µM)	2 (≈ 3.22 µM)	4 (≈ 6.44 µM)	>32	>32	>32	>32	32 (≈ 51.6 µM)
CN(C)c1cc(NC(=O)CN)c(O)c2c1CC1CC3C(N(C)C)C(O)=C(C(N)=O)C(=O)C3(O)C(O)=C1C2=O.O=C(O)C(F)(F)F (stereo not drawn) [M, 9-[(Aminoacetyl)amino]-7-(dimethylamino)-6-demethyl-6-deoxytetracycline mono(trifluoroacetate)]	1	1	2	0.5	0.5	>32	>32	>32	0.5 µg/mL	1 µg/mL	1	0.25	0.25	2	2	2	2	2
CCN(CC)c1cc(NC(C)=O)c(O)c2c1C[C@H]1C[C@H]3[C@H](N(C)C)C(O)=C(C(N)=O)C(=O)[C@@]3(O)C(O)=C1C2=O.O=S(=O)(O)O.O=S(=O)(O)O [Compound E, 9-(Acetylamino)-7-(diethylamino)-6-demethyl-6-deoxytetracycline disulfate]	4	0.5	8	2	0.5	4	8	16	≦0.015 μg/ml	0.5 µg/mL	8	16	2.0	>32	>32	32	>32	32
CN(C)c1ccc(C(=O)Nc2cc(N(C)C)c3c(c2O)C(=O)C2=C(O)[C@]4(O)C(=O)C(C(N)=O)=C(O)[C@@H](N(C)C)[C@@H]4C[C@@H]2C3)cc1 [W, 7-(Dimethylamino)-9-[[(4-dimethylamino)benzoyl)amino)-6-demethyl-6-deoxytetracycline]	32 (≈ 51.6 µM)	8 (≈ 12.9 µM)	16 (≈ 25.8 µM)	8 (≈ 12.9 µM)	8 (≈ 12.9 µM)	16 (≈ 25.8 µM)	8 (≈ 12.9 µM)	8 (≈ 12.9 µM)	2 µg/mL (≈ 3.23 µM)	4 µg/mL (≈ 6.45 µM)	16 (≈ 25.8 µM)	16 (≈ 25.8 µM)	8 (≈ 12.9 µM)	>32	>32	>32	>32	>32
[7S-(7α,10aα) ]-C(9-(Aminocarbonyl)-7-(dimethylamino)-5,5a,6,6a,7,10,10a,12-octahydro-1,8,10a,11-tetrahydroxy-10,12-dioxo-2-naphthacenyl]amino]oxoacetic acid ethyl ester	32	2	>32	32	1	8	32	>32	0.25 µg/mL	2 µg/mL	4	32	32	>32	>32	>32	>32	32
